Reference: patent US9029076B2, “Tissue preservation and fixation method” (George Mason Research Foundation, Inc., priority 2006, dated 2015)

Key:
EGFR Y1148 = test: RPA phosphoprotein level after 24 h storage of tumor needle samples in preservatives; settings: 24 h in preservative at 4° C., relative normalized RPA intensity
Experimental: (§1) The RPA format, originated by the present inventors and collaborators (see, e.g., Paweletz et al. (2001) Oncogene 20, 1981-1989), immobilizes an individual test sample in a miniature dilution curve such that an array contains hundreds of different patient samples, treatments, or time points. In the RPA format, each array is incubated with one detection protein (e.g. anti-peptide antibody), and a single analyte endpoint is measured and directly compared across multiple samples. Briefly, the lysates are printed on glass backed nitrocellulose array slides (FAST Slides Whatman, Florham Park, N.J. or ONCYTE slides Grace BioLabs, Bend, Oreg.) using a robotic array printing device (GMS 417 arrayer (Affymetrix, Santa Clara, Calif. or Aushon 2470, Aushon Biosystems, Burlington, Mass. equipped with 125-500 μm pins). Each lysate is printed in a dilution curve representing neat, 1:2, 1:4, 1:8, 1:16 and negative control dilutions. The slides are stored with desiccant (Drierite, W. A. Hammond, Xenia, Ohio) at −20° C. prior to immunostaining.
(§2) Immunostaining is performed on an automated slide stainer per manufacturer's instructions (Autostainer CSA kit, Dako, Carpinteria, Calif.). Each slide is incubated with a single primary antibody at room temperature for 30 minutes. Polyclonal primary antibodies can be, e.g.: GSK3α/β Tyr279/216 (Invitrogen-Biosource, Carlsbad, Calif.), BCL-2, HIF-1α (BD, Franklin Lakes, N.J.), 4EBP1, FKHR ser256, eIF4E, eIF4E ser209, eIF4G, eIF4G ser1108, IGFR-β, IRS-1, IRS-2, IRS-1 ser612, SGK, Bak, Bax, BAD, BAD ser112, BAD ser136, BAD ser155, B-Raf, mTOR, mTOR ser2448, p70S6 Thr389, p70S6 kinase, p70S6 ser371, S6 kinase ser240/244, Akt, Akt ser473, Akt Thr308, 4EBP1 ser65, 4EBP1 ser70, and 4EBP1 Thr37/46 (Cell Signaling Technology, Danvers, Mass.). A negative control slide is incubated with antibody diluent. Secondary antibody can be goat anti-rabbit IgG H+L (1:5000) (Vector Labs, Burlingame, Calif.).
(§3) Each array is scanned, spot intensity analyzed, data normalized, and a standardized, single data value can be generated for each sample on the array (Image Quant v5.2, GE Healthcare, Piscataway, N.J.) or MicroVigene v2.8, Vigene Tech, Billerica, Mass.). Spot intensity is integrated over a fixed area. Local area background intensity is calculated for each spot with the unprinted adjacent slide background. […] The Ward method for two-way hierarchical clustering can be performed using JMP v5.0 (SAS Institute, Cary N.C.). Wilcoxon two-sample rank sum test can be used to compare values between two groups. P values less than 0.05 are considered significant. When one cannot assume a normal distribution of the variables, non-parametric methods are used. Kaplan-Meier (log-rank) survival estimates for univariate survival analysis can be used.
(§4) Briefly, tumor tissues from gastrinoma/liver, mesothelioma and parathyroid tumors were sampled by five needle passes and placed into the preservatives listed in Table 5. […] Immediate lysis and denaturation of the cellular proteins were accomplished by standard Pierce Tissue Protein Extraction Buffer (T-PER), with additional SDS, denaturing reagents, and detergents. The cell samples were stored 24 h in the listed preservatives at 4° C. and then the listed phosphoprotein endpoints were measured. […] Some values dropped to zero while others are markedly elevated compared to the freshly lysed cell baseline. […] They were unable to stabilize the phosphorylation state of key signal proteins over a storage period of 24 hours, which is a typical time delay for cell or tissue shipment. Numbers in the table are relative normalized intensity values using the RPA technology described herein.

IKappa-Ba ser32 = test: as above; settings: 24 h in preservative at 4° C., relative normalized RPA intensity
Experimental: as §1, §2, §3, §4

ERK T202/Y204 = test: as above; settings: 24 h in preservative at 4° C., relative normalized RPA intensity
Experimental: as §1, §2, §3, §4

AKT Thr308 = test: as above; settings: 24 h in preservative at 4° C., relative normalized RPA intensity
Experimental: as §1, §2, §3, §4

CC3 Asp175 = test: as above; settings: 24 h in preservative at 4° C., relative normalized RPA intensity
Experimental: as §1, §2, §3, §4

CREB ser133 = test: as above; settings: 24 h in preservative at 4° C., relative normalized RPA intensity
Experimental: as §1, §2, §3, §4

AKT ser473 = test: as above; settings: 24 h in preservative at 4° C., relative normalized RPA intensity
Experimental: as §1, §2, §3, §4

IRS-1 ser612 = test: as above; settings: 24 h in preservative at 4° C., relative normalized RPA intensity
Experimental: as §1, §2, §3, §4

p38 T180/182 = test: as above; settings: 24 h in preservative at 4° C., relative normalized RPA intensity
Experimental: as §1, §2, §3, §4

GSK3ab ser21/9 = test: as above; settings: 24 h in preservative at 4° C., relative normalized RPA intensity
Experimental: as §1, §2, §3, §4

phosphoproteins [1] = settings: for phosphoprotein endpoints, room temperature shipping in fixative versus snap frozen: real time, room temperature shipping conditions, FIGS. 6A, 6B and 7
phosphoproteins [2] = test: Overall phosphoprotein preservation of FNA / tumor needle samples stored 24 h at 4° C.; settings: compared to directly lysed cell baseline
Experimental: Fine Needle Aspirate (FNA) samples were stored for 24 hours at 4° C. in each of the chemicals/chemical solutions. The cellular samples were further processed for reverse phase protein microarray analysis. […] Each set of 4 horizontal spots by 2 vertical spots represent an original and its replicate sample, printed on the array in two-fold dilutions, for each FNA sample. The dilution series represents undiluted, 1:2, 1:4 and 1:8 dilutions of each sample.
A variety of types of tumor tissues were incubated in a series of conventional preservatives to determine if the preservatives were able to stabilize selected phosphoproteins.

[3] = Gastrinoma/liver tumor, Lysis Buffer = frozen immediately after lysis
[4] = Parathyroid tumor, Lysis Buffer = frozen immediately after lysis

Row | SMILES | EGFR Y1148 Normalized data (EGFR Y1148; [3]) | EGFR Y1148 Normalized data (EGFR Y1148; Mesothelioma) | EGFR Y1148 Normalized data (EGFR Y1148; [4]) | IKappa-Ba ser32 Normalized data (IKappa-Ba ser32; [3]) | IKappa-Ba ser32 Normalized data (IKappa-Ba ser32; Mesothelioma) | IKappa-Ba ser32 Normalized data (IKappa-Ba ser32; [4]) | ERK T202/Y204 Normalized data (ERK T202/Y204; [3]) | ERK T202/Y204 Normalized data (ERK T202/Y204; Mesothelioma) | ERK T202/Y204 Normalized data (ERK T202/Y204; [4]) | AKT Thr308 Normalized data (AKT Thr308; [3]) | AKT Thr308 Normalized data (AKT Thr308; Mesothelioma) | AKT Thr308 Normalized data (AKT Thr308; [4]) | CC3 Asp175 Normalized data (CC3 Asp175; [3]) | CC3 Asp175 Normalized data (CC3 Asp175; Mesothelioma) | CC3 Asp175 Normalized data (CC3 Asp175; [4]) | CREBser133 Normalized data (CREB ser133; [3]) | CREBser133 Normalized data (CREB ser133; Mesothelioma) | CREBser133 Normalized data (CREB ser133; [4]) | AKT ser473 Normalized data (AKT ser473; [3]) | AKT ser473 Normalized data (AKT ser473; Mesothelioma) | other results
1 | [Cl-].[Na+] [0.9% saline, sodium chloride] | 39.76 | 24.62 | 6.57 | 29.64 | 16.87 | 1.87 | 10.75 | 7.72 | 0.00 | 9.73 | 8.97 | 0.00 | 14.57 | 10.85 | 5.46 | 24.09 | 17.20 | 5.35 | 3.76 | 9.78 | AKT ser473 Normalized data (AKT ser473; [4]): 1.84; IRS-1 ser612 Normalized data (IRS-1 ser612; [3]): 4.82; IRS-1 ser612 Normalized data (IRS-1 ser612; Mesothelioma): 2.34; IRS-1 ser612 Normalized data (IRS-1 ser612; [4]): 0.00; p38 T180/182 Normalized data (p38 T180/182; [3]): 33.41; p38 T180/182 Normalized data (p38 T180/182; Mesothelioma): 26.34; p38 T180/182 Normalized data (p38 T180/182; [4]): 4.79; GSK3ab ser21/9 Normalized data (GSK3ab ser21/9; [3]): 12.25; GSK3ab ser21/9 Normalized data (GSK3ab ser21/9; Mesothelioma): 9.46; GSK3ab ser21/9 Normalized data (GSK3ab ser21/9; [4]): 0.00
2 | OC[C@H]1O[C@H](O[C@H]2O[C@H](CO)[C@@H](O)[C@H](O)[C@H]2O)[C@H](O)[C@@H](O)[C@@H]1O [15% trehalose, Trehalose] | 95.78 | 21.03 | 26.55 | 32.99 | 13.29 | 24.12 | 17.01 | 0.00 | 9.34 | 19.93 | 0.95 | 5.38 | 11.19 | 6.82 | 7.76 | 55.11 | 10.01 | 21.50 | 0.00 | 7.86 | AKT ser473 Normalized data (AKT ser473; [4]): 0.26; IRS-1 ser612 Normalized data (IRS-1 ser612; [3]): 25.51; IRS-1 ser612 Normalized data (IRS-1 ser612; Mesothelioma): 0.00; IRS-1 ser612 Normalized data (IRS-1 ser612; [4]): 0.05; p38 T180/182 Normalized data (p38 T180/182; [3]): 36.95; p38 T180/182 Normalized data (p38 T180/182; Mesothelioma): 7.39; p38 T180/182 Normalized data (p38 T180/182; [4]): 30.53; GSK3ab ser21/9 Normalized data (GSK3ab ser21/9; [3]): 32.18; GSK3ab ser21/9 Normalized data (GSK3ab ser21/9; Mesothelioma): 7.80; GSK3ab ser21/9 Normalized data (GSK3ab ser21/9; [4]): 10.36
3 | OC[C@H]1O[C@@](CO)(O[C@H]2O[C@H](CO)[C@@H](O)[C@H](O)[C@H]2O)[C@@H](O)[C@@H]1O [30% sucrose, sucrose] | 65.97 | 22.84 | 6.14 | 69.82 | 0.00 | 0.33 | 48.68 | 15.67 | 1.15 | 42.04 | 12.13 | 0.00 | 61.02 | 17.90 | 2.23 | 69.03 | 22.82 | 2.09 | 16.16 | 19.36 | AKT ser473 Normalized data (AKT ser473; [4]): 3.27; IRS-1 ser612 Normalized data (IRS-1 ser612; [3]): 31.46; IRS-1 ser612 Normalized data (IRS-1 ser612; Mesothelioma): 1.84; IRS-1 ser612 Normalized data (IRS-1 ser612; [4]): 0.00; p38 T180/182 Normalized data (p38 T180/182; [3]): 63.91; p38 T180/182 Normalized data (p38 T180/182; Mesothelioma): 28.71; p38 T180/182 Normalized data (p38 T180/182; [4]): 1.15; GSK3ab ser21/9 Normalized data (GSK3ab ser21/9; [3]): 37.27; GSK3ab ser21/9 Normalized data (GSK3ab ser21/9; Mesothelioma): 3.12; GSK3ab ser21/9 Normalized data (GSK3ab ser21/9; [4]): 0.00
4 | CC(C)=O [Acetone] | 65.10 | 49.89 | 81.36 | 48.91 | 36.08 | 49.65 | 46.15 | 55.31 | 77.97 | 25.45 | 30.05 | 21.93 | 38.23 | 26.75 | 29.46 | 91.79 | 83.10 | 83.74 | 4.56 | 27.53 | AKT ser473 Normalized data (AKT ser473; [4]): 13.12; IRS-1 ser612 Normalized data (IRS-1 ser612; [3]): 33.10; IRS-1 ser612 Normalized data (IRS-1 ser612; Mesothelioma): 10.72; IRS-1 ser612 Normalized data (IRS-1 ser612; [4]): 40.55; p38 T180/182 Normalized data (p38 T180/182; [3]): 77.58; p38 T180/182 Normalized data (p38 T180/182; Mesothelioma): 87.57; p38 T180/182 Normalized data (p38 T180/182; [4]): 72.96; GSK3ab ser21/9 Normalized data (GSK3ab ser21/9; [3]): 35.47; GSK3ab ser21/9 Normalized data (GSK3ab ser21/9; Mesothelioma): 55.72; GSK3ab ser21/9 Normalized data (GSK3ab ser21/9; [4]): 123.00
5 | CO [Methanol] | 81.50 | 63.00 | 53.41 | 54.98 | 41.23 | 36.25 | 46.47 | 18.87 | 28.54 | 43.73 | 32.75 | 28.31 | 37.64 | 16.93 | 14.80 | 131.23 | 114.37 | 65.44 | 4.15 | 11.14 | AKT ser473 Normalized data (AKT ser473; [4]): 11.06; IRS-1 ser612 Normalized data (IRS-1 ser612; [3]): 65.97; IRS-1 ser612 Normalized data (IRS-1 ser612; Mesothelioma): 37.33; IRS-1 ser612 Normalized data (IRS-1 ser612; [4]): 23.51; p38 T180/182 Normalized data (p38 T180/182; [3]): 76.09; p38 T180/182 Normalized data (p38 T180/182; Mesothelioma): 53.36; p38 T180/182 Normalized data (p38 T180/182; [4]): 34.09; GSK3ab ser21/9 Normalized data (GSK3ab ser21/9; [3]): 33.59; GSK3ab ser21/9 Normalized data (GSK3ab ser21/9; Mesothelioma): 66.02; GSK3ab ser21/9 Normalized data (GSK3ab ser21/9; [4]): 53.28
6 | CCO [ethanol:water, ethanol] | – | – | – | – | – | – | – | – | – | – | – | – | – | – | – | – | – | – | – | – | phosphoprotein endpoints, room temperature shipping in fixative versus snap frozen (phosphoproteins [1]): equivalence of the two methods
7 | CCO [ethanol] | – | – | – | – | – | – | – | – | – | – | – | – | – | – | – | – | – | – | – | – | preservation of phosphoproteins overall (phosphoproteins [2]): do not adequately preserve the phosphoproteins
8 | CO [methanol: water, methanol] | – | – | – | – | – | – | – | – | – | – | – | – | – | – | – | – | – | – | – | – | RPA spot intensities, fixed versus frozen tissue (phosphoproteins [1]; FIG. 6A): equivalent spot intensities; phosphoprotein endpoints, room temperature shipping in fixative versus snap frozen (phosphoproteins [1]): equivalence of the two methods
